Source: patent publication US9375438B2, “Inhibitors of NCCa-ATP channels for therapy” (University of Maryland, Baltimore, priority 2007, dated 2016)

Assays:
[1] = rat, in vivo
Method: (§1) SCI injury model. This study was performed in accordance with the guidelines of the Institutional Animal Care and Use Committee. Adult female Long-Evans rats (275-350 gm) were anesthetized (Ketamine, 60 mg/kg plus Xylazine, 7.5 mg/kg, i.p.). The dura at C4-5 was exposed via a left hemilaminectomy. A hemi-cervical spinal cord contusion was created using a blunt force impactor (1.3-mm impactor head driven by a 10 gm weight dropped vertically 25 mm) (Soblosky et al., 2001; Gensel et al., 2006). After SCI, animals were given 10 ml of glucose-free normal saline s.q. Rectal temperature was maintained at ˜37° C. using a servo-controlled warming blanket. Blood gases and serum glucose 10-15 min post-SCI were: pO2, 95±6 mm Hg; pCO2, 46±3 mm Hg; pH, 7.33±0.01; glucose 258±17 mg/dl in controls and pO2, 96±7 mm Hg; pCO2, 45±2 mm Hg; pH, 7.37±0.01; glucose 242±14 mg/dl in glibenclamide-treated animals.
Drug delivery. […] During the course of the project, slightly different formulations of drug were used, with the best results obtained using stock solutions made by placing 50 mg (or 25 mg) of drug into 10 ml DMSO, and infusion solutions made by placing 400 μl (or 800 μl) stock into 4.6 ml (or 4.2 ml) unbuffered saline (0.9% NaCl) and adjusting the pH to ˜8.5 using 0.1 N NaOH.

[2] = system: NCCa-ATP channels in bEnd.3 cells; assay: Perforated-patch whole-cell recording of endothelial cells, Na azide-induced ATP depletion; format: cell-based, murine; details: 1 μM glibenclamide; endothelial cells exposed to hypoxic conditions
Method: Patch clamp of endothelial cells was performed using a nystatin-perforated patch technique, to maintain the metabolic integrity of the cells. The identity of the activated channel can be assessed by measurement of the “reversal potential”, the potential at which an ion channel current reverses from inward to outward. With physiologically relevant concentrations of ions intracellularly and extracellularly (high potassium inside, high sodium outside), the reversal potential can unambiguously distinguish between a K^+ channel current such as KATP, which reverses negative to −50 mV and a non-selective cation channel current such as NCCa-ATP, which reverses near 0 mV.
Cell culture. Endothelial cell cultures from human brain microvessels, human aorta (ScienCell Research Laboratories), and murine brain microvessels (bEnd.3; ATCC), were grown at low density using media and supplements recommended by suppliers.

[3] = system: rats with hemi-cervical spinal cord contusion (SCI); assay: SCI model: extravasated blood in cord (tissue blood); format: in vivo, rat
Method: as §1, with “blanket.” for “blanket. Blood gases and serum glucose 10-15 min post-SCI were: pO2, 95±6 mm Hg; pCO2, 46±3 mm Hg; pH, 7.33±0.01; glucose 258±17 mg/dl in controls and pO2, 96±7 mm Hg; pCO2, 45±2 mm Hg; pH, 7.37±0.01; glucose 242±14 mg/dl in glibenclamide-treated animals.”
For in vivo gene suppression of SUR1, we used oligodeoxynucleotides that were phosphorothioated at 4 distal bonds to protect against endogenous nucleases (35).
Tissue blood. Rats were sacrificed at various times after SCI (n=5-11 rats/group), were perfused with heparinized saline to remove intravascular blood, and 5-mm segments of cord encompassing the lesion were homogenized and processed as described (Choudhri et al., 1997).

COc1ccc(Cl)cc1C(=O)NCCc1ccc(S(=O)(=O)NC(=O)NC2CCCCC2)cc1 [glibenclamide]
blood pH [1]: 7.37±0.01 | pCO2 [1]: 45±2 mm Hg | pO2 [1]: 96±7 mm Hg | serum glucose [1]: 242 ± 14 mg/dL | block of Na azide-induced ohmic current [2]: blocked | hemorrhage in cords (visual) ([3]; 24 h post-SCI, glibenclamide 200 ng/h s.q. vs vehicle): visibly less hemorrhage | extravasated blood in tissue homogenates ([3]; during the 24 h after injury, glibenclamide 200 ng/h s.q. vs vehicle): little increase | PHN ([3]; following SCI (summary)): significantly reduced
